From patent publication US20250333406A1, “SULFONYL CYCLIC DERIVATIVES, AND COMPOSITIONS AND METHODS THEREOF” (Lysoway Therapeutics, Inc., priority 2023, published 2025)

Test system: TFEB
Assay: TFEB Nuclear Translocation Assay
Type: cell-based
Conditions: read-out: EC50 of TFEB activation

EC50 [µM]	Structure (SMILES)
≤ 1	CC(F)(F)c1ccc(S(=O)(=O)n2nc(N3CCN(c4ncc(F)cc4F)CC34CC4)c3c(Cl)cccc32)cc1 [Compound 123, 4-chloro-1-((4-(1,1-difluoroethyl)phenyl)sulfonyl)-3-(7-(3,5-difluoropyridin-2-yl)-4,7-diazaspiro[2.5]octan-4-yl)-1H-indazole]
≤ 1	CC(F)(F)c1ccc(S(=O)(=O)n2nc(N3CCN(c4ccc(Cl)cc4F)CC34CC4)c3c(Cl)cccc32)cc1 [Compound 124, 4-chloro-3-(7-(4-chloro-2-fluorophenyl)-4,7-diazaspiro[2.5]octan-4-yl)-1-((4-(1,1-difluoroethyl)phenyl)sulfonyl)-1H-indazole]
≤ 1	CC(F)(F)c1ccc(S(=O)(=O)n2nc(N3CCN(c4ccc(F)cc4Cl)CC34CC4)c3c(Cl)cccc32)cc1 [Compound 125, 4-chloro-3-(7-(2-chloro-4-fluorophenyl)-4,7-diazaspiro [2.5]octan-4-yl)-1-((4-(1,1-difluoroethyl)phenyl)sulfonyl)-1H-indazole]
≤ 1	CC(F)(F)c1ccc(S(=O)(=O)n2nc(N3CCN(c4ccc(F)cc4F)CC34CC4)c3c(Cl)cccc32)cc1 [Compound 126, 4-chloro-1-((4-(1,1-difluoroethyl)phenyl)sulfonyl)-3-(7-(2,4-difluorophenyl)-4,7-diazaspiro[2.5]octan-4-yl)-1H-indazole]
≤ 1	CC(F)(F)c1ccc(S(=O)(=O)n2nc(N3CCN(C(C)(C)CF)CC34CC4)c3c(Cl)cccc32)cc1 [Compound 128, 4-chloro-1-((4-(1,1-difluoroethyl)phenyl)sulfonyl)-3-(7-(1-fluoro-2-methylpropan-2-yl)-4,7-diazaspiro [2.5]octan-4-yl)-1H-indazole]
≤ 1	CC(F)(F)c1ccc(S(=O)(=O)n2nc(N3CCN(C(C)(CF)CF)CC34CC4)c3c(Cl)cccc32)cc1 [Compound 130, 4-chloro-1-[4-(1,1-difluoroethyl)phenyl]sulfonyl-3-[7-[2-fluoro-1-(fluoromethyl)-1-methyl-ethyl]-4,7-diazaspiro [2.5]octan-4-yl]indazole]
≤ 1	CC(F)(F)c1ccc(S(=O)(=O)n2nc(N3CCN(c4ncc(F)cn4)CC34CC4)c3c(F)cccc32)cc1 [Compound 133, 1-[4-(1,1-difluoroethyl)phenyl]sulfonyl-4-fluoro-3-[7-(5-fluoropyrimidin-2-yl)-4,7-diazaspiro [2.5]octan-4-yl]indazole]
≥ 10	CC(F)(F)c1ccc(S(=O)(=O)n2nc(N3CCN(c4ncc(F)cn4)CC34CC4)c3c(O)cccc32)cc1 [Compound 134, 1-[4-(1,1-difluoroethyl)phenyl]sulfonyl-3-[7-(5-fluoropyrimidin-2-yl)-4,7-diazaspiro [2.5]octan-4-yl]indazol-4-ol]
≤ 1	CC(F)(F)c1ccc(S(=O)(=O)n2nc(N3CCN(c4ncc(F)cn4)CC34CC4)c3c(Cl)cccc32)cn1 [Compound 135, 4-chloro-1-[[6-(1,1-difluoroethyl)-3-pyridyl]sulfonyl]-3-[7-(5-fluoropyrimidin-2-yl)-4,7-diazaspiro [2.5]octan-4-yl]indazole]
≥ 10	CC(F)(F)c1cnc(-n2nc(N3CCN(c4ncc(F)cn4)CC34CC4)c3c(Cl)cccc32)nc1 [Compound 136, 4-chloro-1-[5-(1,1-difluoroethyl)pyrimidin-2-yl]-3-[7-(5-fluoropyrimidin-2-yl)-4,7-diazaspiro [2.5]octan-4-yl]indazole]
≤ 1	CC(F)(F)c1ncc(S(=O)(=O)n2nc(N3CCN(c4ncc(F)cn4)CC34CC4)c3c(Cl)cccc32)cn1 [Compound 137, 4-chloro-1-[2-(1,1-difluoroethyl)pyrimidin-5-yl]sulfonyl-3-[7-(5-fluoropyrimidin-2-yl)-4,7-diazaspiro [2.5]octan-4-yl]indazole]
≤ 1	CC1COCC(C)N1c1nn(S(=O)(=O)c2ccn(S(=O)(=O)C(C)C)c2)c2cccc(Cl)c12 (centres unmarked) [Compound 138, 4-[4-chloro-1-(1-isopropylsulfonylpyrrol-3-yl)sulfonyl-indazol-3-yl]-3,5-dimethyl-morpholine]
≤ 1	CC(C)S(=O)(=O)n1ccc(S(=O)(=O)n2nc(N3CCCC4(CC4)C3)c3c(Cl)cccc32)c1 [Compound 139, 3-(5-azaspiro [2.5]octan-5-yl)-4-chloro-1-(1-isopropylsulfonylpyrrol-3-yl) sulfonyl-indazole]
≤ 1	CC(C)S(=O)(=O)n1ccc(S(=O)(=O)n2nc(N3CCN(c4ncc(Cl)cc4F)CC34CC4)c3c(Cl)cccc32)c1 [Compound 140, 4-chloro-3-[7-(5-chloro-3-fluoro-2-pyridyl)-4,7-diazaspiro [2.5]octan-4-yl]-1-(1-isopropylsulfonylpyrrol-3-yl) sulfonyl-indazole]
≤ 1	CC(C)S(=O)(=O)n1ccc(S(=O)(=O)n2nc(N3CCN(c4ncc(F)cc4F)CC34CC4)c3c(Cl)cccc32)c1 [Compound 141, 4-chloro-3-[7-(3,5-difluoro-2-pyridyl)-4,7-diazaspiro [2.5]octan-4-yl]-1-(1-isopropylsulfonylpyrrol-3-yl) sulfonyl-indazole]
≤ 1	CC(C)S(=O)(=O)n1ccc(S(=O)(=O)n2nc(N3CCN(c4ncc(F)cc4F)CC34CC4)c3c(Cl)ccc(F)c32)c1 [Compound 142, 4-chloro-3-[7-(3,5-difluoro-2-pyridyl)-4,7-diazaspiro [2.5]octan-4-yl]-7-fluoro-1-(1-isopropylsulfonylpyrrol-3-yl) sulfonyl-indazole]
≤ 1	O=S(=O)(c1ccn(S(=O)(=O)C2CC2)c1)n1nc(N2CCN(c3ncc(F)cc3F)CC23CC3)c2c(Cl)ccc(F)c21 [Compound 143, 4-chloro-1-((1-(cyclopropylsulfonyl)-1H-pyrrol-3-yl)sulfonyl)-3-(7-(3,5-difluoropyridin-2-yl)-4,7-diazaspiro [2.5]octan-4-yl)-7-fluoro-1H-indazole]
≤ 1	CC(C)S(=O)(=O)n1ccc(S(=O)(=O)n2nc(N3CCN(c4ncc(F)cc4F)CC34CC4)c3c(F)ccc(F)c32)c1 [Compound 144, 3-[7-(3,5-difluoro-2-pyridyl)-4,7-diazaspiro [2.5]octan-4-yl]-4,7-difluoro-1-(1-isopropylsulfonylpyrrol-3-yl) sulfonyl-indazole]
≤ 1	O=S(=O)(c1ccn(S(=O)(=O)C2CC2)c1)n1nc(N2CCN(c3ncc(F)cc3F)CC23CC3)c2c(F)ccc(F)c21 [Compound 145, 1-(1-cyclopropylsulfonylpyrrol-3-yl) sulfonyl-3-[7-(3,5-difluoro-2-pyridyl)-4,7-diazaspiro [2.5]octan-4-yl]-4,7-difluoro-indazole]
≤ 1	O=S(=O)(c1ccn(S(=O)(=O)C2CC2)c1)n1nc(N2CCN(c3ncc(Cl)cc3F)CC23CC3)c2c(F)ccc(F)c21 [Compound 146, 3-[7-(5-chloro-3-fluoro-2-pyridyl)-4,7-diazaspiro [2.5]octan-4-yl]-1-(1-cyclopropylsulfonylpyrrol-3-yl) sulfonyl-4,7-difluoro-indazole]
≤ 1	CC(C)S(=O)(=O)n1ccc(S(=O)(=O)n2nc(N3CCN(c4ncc(Cl)cc4F)CC34CC4)c3c(Cl)ccc(F)c32)c1 [Compound 147, 4-chloro-3-[7-(5-chloro-3-fluoro-2-pyridyl)-4,7-diazaspiro [2.5]octan-4-yl]-7-fluoro-1-(1-isopropylsulfonylpyrrol-3-yl) sulfonyl-indazole]
≤ 1	CC(C)S(=O)(=O)n1ccc(S(=O)(=O)n2nc(N3CCN(c4ncc(Cl)cc4F)CC34CC4)c3c(F)ccc(F)c32)c1 [Compound 148, 3-[7-(5-chloro-3-fluoro-2-pyridyl)-4,7-diazaspiro [2.5]octan-4-yl]-4,7-difluoro-1-(1-isopropylsulfonylpyrrol-3-yl) sulfonyl-indazole]
≤ 1	CC(C)S(=O)(=O)n1ccc(S(=O)(=O)n2nc(N3CCN(c4ncc(F)cn4)CC34CC4)c3c(F)ccc(F)c32)c1 [Compound 149, 4,7-difluoro-3-(7-(5-fluoropyrimidin-2-yl)-4,7-diazaspiro [2.5]octan-4-yl)-1-((1-(isopropylsulfonyl)-1H-pyrrol-3-yl)sulfonyl)-1H-indazole]
≤ 1	CC(C)S(=O)(=O)n1ccc(S(=O)(=O)n2nc(N3CCN(c4ncc(Cl)cc4F)CC34CC4)c3c(Cl)cc(F)cc32)c1 [Compound 150, 4-chloro-3-(7-(5-chloro-3-fluoropyridin-2-yl)-4,7-diazaspiro [2.5]octan-4-yl)-6-fluoro-1-((1-(isopropylsulfonyl)-1H-pyrrol-3-yl)sulfonyl)-1H-indazole]
≤ 1	CC(C)S(=O)(=O)n1ccc(S(=O)(=O)n2nc(N3CCN(c4ncc(Cl)cc4F)CC34CC4)c3c(Cl)cncc32)c1 [Compound 151, 4-chloro-3-[7-(5-chloro-3-fluoro-2-pyridyl)-4,7-diazaspiro [2.5]octan-4-yl]-1-(1-isopropylsulfonylpyrrol-3-yl) sulfonyl-pyrazolo [3,4-c]pyridine]

Structure (SMILES)	EC50 [µM]
CC(F)(F)c1ccc(S(=O)(=O)n2nc(N3CCN(C(=O)F)CC34CC4)c3c(Cl)cccc32)cc1 [Compound 127, 4-(4-chloro-1-((4-(1,1-difluoroethyl)phenyl)sulfonyl)-1H-indazol-3-yl)-4,7-diazaspiro [2.5]octane-7-carbonyl fluoride]	≤ 1
CC(F)(F)C12CC(S(=O)(=O)n3nc(N4CCN(c5ncc(F)cn5)CC45CC5)c4c(Cl)cccc43)(C1)C2 [Compound 129, 4-chloro-1-((3-(1,1-difluoroethyl)bicycle [1.1.1]pentan-1-yl)sulfonyl)-3-(7-(5-fluoropyrimidin-2-yl)-4,7-diazaspiro [2.5]octan-4-yl)-1H-indazole]	≤ 1
O=S(=O)(n1nc(N2CCN(c3ncc(F)cn3)CC23CC3)c2c(Cl)cccc21)C12CC(C(F)(F)F)(C1)C2 [Compound 131, 4-chloro-3-[7-(5-fluoropyrimidin-2-yl)-4,7-diazaspiro [2.5]octan-4-yl]-1-[[3-(trifluoromethyl)-1-bicyclo [1.1.1]pentanyl]sulfonyl]indazole]	≥ 10
O=S(=O)(n1nc(N2CCN(c3ncc(F)cn3)CC23CC3)c2c(Cl)cccc21)C12CC(F)(C1)C2 [Compound 132, 4-chloro-1-[(3-fluoro-1-bicyclo [1.1.1]pentanyl)sulfonyl]-3-[7-(5-fluoropyrimidin-2-yl)-4,7-diazaspiro [2.5]octan-4-yl]indazole]	≥ 10
